In patent US20090081279A1, “Skin Dressings” (priority 2005, published 2009):

Legend:
[1] = test system: moist skin; assay: Skin reddening (dermal vasodilation) after applying dried PVA layer with pre-generated GSNO onto moist skin; assay type: in vivo
Excerpt: GSNO can be released from the layer simply by applying the layer onto a moist surface (e.g. wound bed). Once released, GSNO undergoes a slow decomposition to generate nitric oxide. The release of GSNO from the layer is relatively rapid.

[2] = Effect of pH on production/decomposition of GSNO in aqueous solution of potassium nitrite and L-glutathione; assay type: physicochemical
Procedure: The following reagents were prepared: • Reagent 1: Na-phosphate buffer (pH 7.4, 0.1 M) • Reagent 2: Griess reagent: 20 mg of N-(1-Naphthyl)ethylendiamine dihydrochloride (NADD)+500 mg of sulphanilamide dissolved in 2 mL of DMSO. (N.B. This solution is light sensitive and should be kept in the dark as much as possible) • Reagent 3: Mercuric chloride (10 mM) in DMSO (13.58 mg of HgCl2 in 5 mL of DMSO)
The six-step procedure set out below was then followed: • 1. Dispense 1.5 mL of Reagent 1 into a plastic cuvette • 2. Add 200 μL of the sample (i.e. sample in which GSNO concentration is to be determined) • 3. Add 1.17 mL of DI water • 4. Add 100 μL of Reagent 2 • 5. Add 30 μL of Reagent 3 and give the solution a good mix • 6. Read absorbance of the resulting mixture at 496 nm in 10 min.
The concentration of GSNO can be calculated from the absorbance reading using the molar absorption coefficient for GSNO=12,500 M^−1 cm^−1.
The rate of the GSNO production and subsequent decomposition in solutions containing potassium nitrite (5 mM) and L-glutathione (5 mM) was studied at pH 3 (citrate-phosphate buffer, 0.1 M), pH 5 (citrate-phosphate buffer, 0.1 M) and pH 7 (phosphate buffer, 0.1 M).

[3] = Stability of GSNO in dried PVA layer; assay type: physicochemical; conditions: in the dried layer of PVA, especially if stored in a moisture-free atmosphere
Procedure: In one preferred embodiment of this type, the dressing comprises a layer of dried PVA containing pre-generated S-nitrosothiol. The layer is formed from PVA, a source of nitrite (preferably potassium nitrite) and a thiol (preferably L-glutathione). In a typical example of this embodiment both of these additives are added to the PVA solution prior to the drying. S-nitrosothiol (GSNO in the preferred case) is generated within the layer during the drying step. Nitrosothiols are known to be rather unstable in aqueous solutions. Nevertheless, GSNO was found very stable in the dried layer of PVA, especially if stored in a moisture-free atmosphere.

[4] = under normal conditions; cited from earlier work
[5] = under normal conditions; cited from earlier work; remark: listed apart in the source

| Compound | Reversibility of skin reddening ([1]; after removal of the patch) | Time to reddening of the skin due to dermal vasodilation ([1]; dried PVA layer with pre-generated GSNO applied onto moist skin) [min] | Stability of GSNO produced ([2]; pH 5 compared with pH 3) | Initial production of GSNO ([2]; pH 5 compared with pH 3 (citrate-phosphate buffer, 0.1 M)) | Production of GSNO ([2]; pH 7 (phosphate buffer, 0.1 M), potassium nitrite 5 mM, L-glutathione 5 mM) | Stability of GSNO [3] | Time to total (100%) decomposition [4] | Maximum solubility in water [5] |
| --- | --- | --- | --- | --- | --- | --- | --- | --- |
| N[C@@H](CCC(=O)N[C@@H](CSN=O)C(=O)NCC(=O)O)C(=O)O [GSNO, S-nitrosoglutathione] | totally reversible | ≤ 1 | slightly higher at pH 5 compared with that at pH 3 | slower at pH 5 compared with pH 3 | No production | very stable | hours/days |  |
| [N]=O [NO, Nitric oxide] |  |  |  |  |  |  |  | approximately 1.7 mM |
